Data: patent publication US7671062B2, “Modulators of chemokine receptor activity, crystalline forms and process” (Bristol-Myers Squibb Company, priority 2006, dated 2010)
Like-named read-outs stand apart in the source and are kept apart here.

Experiments:
[1] = Single-dose pharmacokinetics in monkeys; settings: male, Cynomolgus, cynomolgus monkey
Description: The pharmacokinetics of various test compounds were evaluated in male Cynomolgus monkeys in a crossover-design. Monkeys were fasted overnight prior to PO dosing and fed 4 h post dose. […] Serial blood samples (˜0.3 mL) were collected from a femoral artery at 0.17 (IV only), 0.25, 0.5, 0.75, 1, 2, 4, 6, 8, and 24 h post dose, and centrifuged at 4° C. (1500-2000×g) to obtain plasma. Samples were stored at −20° C. until analysis by LC/MS/MS.
(§5) The pharmacokinetic parameters were obtained by non-compartmental analysis of plasma concentration vs. time data ([…] ™ software, Version 4.2, InnaPhase Corporation, Philadelphia, Pa.). The peak concentration (Cmax) and time for Cmax were recorded directly from experimental observations. The area under the curve from time zero to the last sampling time (AUC(0-T)) was calculated using a combination of linear and log trapezoidal summations. The total plasma clearance (CLTp), steady-state volume of distribution (Vss), apparent elimination half-life (T½) and mean residence time (MRT) were estimated after IV administration. […] The absolute oral bioavailability (F) was estimated as the ratio of dose-normalized AUC values following oral and IV doses.

monkey PBMC's = assay: In vitro chemotaxis assay with monkey PBMC's; type: cell-based, Cynomolgus monkey; settings: Primates, highly variable
Excerpt: (§1) The first employs monkey PBMC's while the second uses L1.2 cells stably transfected with Cyno CCR2.

[2] = target: human cardiac sodium channel SCN5A (Homo sapiens, UniProt Q14524); assay: Sodium channel patch clamp, HEK-293 cells; type: cell-based; settings: read-out: Na+ channel patch clamp (% Inhib.)
human cardiac sodium channel SCN5A, sequence (Q14524 whole entry): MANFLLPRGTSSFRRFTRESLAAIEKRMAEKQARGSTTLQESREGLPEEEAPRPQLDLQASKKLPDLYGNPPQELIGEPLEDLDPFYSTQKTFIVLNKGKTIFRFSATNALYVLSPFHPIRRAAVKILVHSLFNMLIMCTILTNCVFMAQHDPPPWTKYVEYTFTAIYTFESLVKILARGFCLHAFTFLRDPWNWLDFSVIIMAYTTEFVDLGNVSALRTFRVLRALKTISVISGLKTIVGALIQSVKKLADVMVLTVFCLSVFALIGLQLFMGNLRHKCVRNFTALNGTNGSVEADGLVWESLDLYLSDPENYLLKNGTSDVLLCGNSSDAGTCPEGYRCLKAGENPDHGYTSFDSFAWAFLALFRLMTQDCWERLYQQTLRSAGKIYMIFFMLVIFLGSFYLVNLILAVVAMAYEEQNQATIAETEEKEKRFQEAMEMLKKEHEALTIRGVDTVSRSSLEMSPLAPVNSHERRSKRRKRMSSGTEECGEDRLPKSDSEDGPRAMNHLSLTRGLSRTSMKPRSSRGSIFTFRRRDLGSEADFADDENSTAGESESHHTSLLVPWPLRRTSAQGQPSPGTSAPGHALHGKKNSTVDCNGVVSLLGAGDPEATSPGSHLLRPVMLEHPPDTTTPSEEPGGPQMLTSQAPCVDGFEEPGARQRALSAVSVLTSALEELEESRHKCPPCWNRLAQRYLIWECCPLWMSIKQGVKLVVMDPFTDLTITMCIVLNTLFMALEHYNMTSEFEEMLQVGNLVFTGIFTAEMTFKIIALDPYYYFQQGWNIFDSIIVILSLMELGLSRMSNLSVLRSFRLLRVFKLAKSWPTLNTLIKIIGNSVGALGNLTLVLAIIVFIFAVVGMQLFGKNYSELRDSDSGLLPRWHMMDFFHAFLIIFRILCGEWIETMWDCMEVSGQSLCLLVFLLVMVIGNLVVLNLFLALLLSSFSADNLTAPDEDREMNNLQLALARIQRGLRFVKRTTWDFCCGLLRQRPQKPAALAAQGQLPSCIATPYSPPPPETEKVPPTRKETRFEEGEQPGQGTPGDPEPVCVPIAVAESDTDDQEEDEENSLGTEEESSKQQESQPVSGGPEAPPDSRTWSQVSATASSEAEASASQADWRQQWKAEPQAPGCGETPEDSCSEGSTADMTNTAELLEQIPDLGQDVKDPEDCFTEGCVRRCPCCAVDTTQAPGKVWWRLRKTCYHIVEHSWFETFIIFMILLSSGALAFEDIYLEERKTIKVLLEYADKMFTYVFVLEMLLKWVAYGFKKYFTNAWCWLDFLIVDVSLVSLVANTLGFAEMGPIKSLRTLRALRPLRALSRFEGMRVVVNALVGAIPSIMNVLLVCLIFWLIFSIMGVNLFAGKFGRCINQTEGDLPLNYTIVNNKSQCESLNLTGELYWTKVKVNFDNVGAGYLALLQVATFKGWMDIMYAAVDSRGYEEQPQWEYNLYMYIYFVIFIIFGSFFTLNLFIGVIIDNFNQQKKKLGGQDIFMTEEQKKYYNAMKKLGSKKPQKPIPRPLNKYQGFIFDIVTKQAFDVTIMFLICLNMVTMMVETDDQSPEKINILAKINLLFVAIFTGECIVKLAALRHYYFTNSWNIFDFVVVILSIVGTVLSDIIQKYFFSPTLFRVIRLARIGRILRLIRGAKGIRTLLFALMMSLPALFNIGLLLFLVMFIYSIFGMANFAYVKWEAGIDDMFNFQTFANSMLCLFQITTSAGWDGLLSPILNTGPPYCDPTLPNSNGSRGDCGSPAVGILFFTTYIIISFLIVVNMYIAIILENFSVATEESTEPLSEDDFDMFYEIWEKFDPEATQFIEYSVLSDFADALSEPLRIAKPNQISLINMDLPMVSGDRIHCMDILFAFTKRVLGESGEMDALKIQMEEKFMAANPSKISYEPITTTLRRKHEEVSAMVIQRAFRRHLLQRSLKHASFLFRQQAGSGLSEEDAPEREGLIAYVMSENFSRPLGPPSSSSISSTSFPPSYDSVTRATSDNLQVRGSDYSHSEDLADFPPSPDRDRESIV
Description: The compound was tested at a protein-free aqueous buffer. For determining steady state inhibition, sodium currents were elicited every 5 seconds using the following voltage protocol: cells were held at a potential of −90 mV and stepped to −20 mV for 60 ms. Effects were calculated by measuring inhibition of peak current during the test pulse to −20 mV. Rate-dependence of inhibition was assessed by stimulation at frequencies of 1 Hz and 4 Hz.

[3] = Intradermal (ID) MCP-1 challenge model in Cynomolgus monkey; type: in vivo; set-up: PMN score / Eos score / Total cell score: scale not given here; settings: both sexes, cynomolgus monkey, plasma, read-out: Free plasma conc
Description: (§2) Intradermal injection of MCP-1 results in the infiltration of mononuclear cells to the injection site. This model was initially developed to assess the inhibitory effect of CCR2 antagonists on the infiltration of mononuclear cells to the skin tissue injected with human MCP-1.
(§3) Immediately after dosing on Day 3, all animals received at least 2 intradermal injections of 10 μg (50 μL/injection ) of human MCP-1 (R & D Systems) and at least 2 intradermal injections of its DPBS control (50 μl/injection) at separate sites on the dorsal thorax. Dermal biopsies of all sites were obtained at approximately 18 hours following MCP-1 (or DPBS) challenge. Biopsies were processed for semi-quantitative histological evaluation. Representative sections of skin samples were examined by light microscopy, microscopic lesions and cellular infiltration were noted, and their incidences were tabulated.
(§4) For both studies, in addition to biopsy analysis, blood was collected and evaluated for complete blood counts and cell differentials. Also evaluated were plasma samples for compound concentrations, and serum samples for systemic inflammatory mediator levels.

[4] = tested on: infiltration of mononuclear cells to the skin tissue injected with human MCP-1; assay: as above; type: in vivo; set-up: PMN score / Eos score / Total cell score: scale not given here; settings: for inhibition of mononuclear cell infiltration: second study, naive monkeys
Description: as §2, §3, §4

[5] = Parallel Artificial Membrane Permeability Assay (PAMPA); settings: mean ± SD (n in parentheses)
Description: The Parallel Artificial Membrane Permeability Assay (PAMPA) consists of a specially formulated lecithin-based lipid combination referred to as the gastrointestinal tract (GIT) lipid. The GIT lipid is used to form a membrane in a sandwich plate assembly similar to that used in the Caco-2 assays. […] The rate of passage of compounds through the PAMPA membrane is used to determine a permeability coefficient (Pc), which can be related to the in vivo passive permeability of the compound.
The permeability coefficient (Pc) of a particular compound is examined in a pH-dependent setting with apical and basolateral pH of 7.4. All experiments are conducted in triplicate determinations.
The PAMPA assay plate (donor side and acceptor side) was combined and allowed to incubate at room temperature for 4 hours. […] The donor, acceptor, reference, and blank plates were read in the SpectraMax UV plate reader. Data was captured by the pION software, which analyzes the spectra and generates Pc values.

CCR2 [6] = target: T1, CCR2 (Homo sapiens, UniProt P41597); assay: In vivo receptor occupancy in blood of hCCR2 KI mice, 48-hour TG peritonitis model (Gaddum equation); settings: for Concentration of Mouse MCP-1 in plasma / Concentration of free Example 1 in plasma: 48-hour TG peritonitis; for % free CCR2 / % mouse MCP-1 bound CCR2 / % of Example 1-bound CCR2: Gaddum equation
T1 sequence (P41597 whole entry): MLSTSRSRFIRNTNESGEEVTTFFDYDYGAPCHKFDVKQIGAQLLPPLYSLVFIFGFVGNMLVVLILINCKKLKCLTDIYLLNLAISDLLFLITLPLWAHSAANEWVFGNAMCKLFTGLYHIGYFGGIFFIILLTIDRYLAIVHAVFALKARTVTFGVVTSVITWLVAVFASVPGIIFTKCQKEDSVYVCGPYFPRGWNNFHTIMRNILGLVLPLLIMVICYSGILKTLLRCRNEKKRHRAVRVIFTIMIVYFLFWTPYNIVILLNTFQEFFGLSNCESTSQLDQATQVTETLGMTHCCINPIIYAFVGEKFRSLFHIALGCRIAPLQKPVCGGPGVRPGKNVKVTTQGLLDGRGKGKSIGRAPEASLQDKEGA

hERG [7] = target: T2, hERG (Homo sapiens, UniProt Q12809); assay: hERG flux (Tl+ flux, FLIPR) in HEK293 cells; type: cell-based; set-up: expressed in transfected cells; host or cells: HEK293
T2 sequence (Q12809 whole entry): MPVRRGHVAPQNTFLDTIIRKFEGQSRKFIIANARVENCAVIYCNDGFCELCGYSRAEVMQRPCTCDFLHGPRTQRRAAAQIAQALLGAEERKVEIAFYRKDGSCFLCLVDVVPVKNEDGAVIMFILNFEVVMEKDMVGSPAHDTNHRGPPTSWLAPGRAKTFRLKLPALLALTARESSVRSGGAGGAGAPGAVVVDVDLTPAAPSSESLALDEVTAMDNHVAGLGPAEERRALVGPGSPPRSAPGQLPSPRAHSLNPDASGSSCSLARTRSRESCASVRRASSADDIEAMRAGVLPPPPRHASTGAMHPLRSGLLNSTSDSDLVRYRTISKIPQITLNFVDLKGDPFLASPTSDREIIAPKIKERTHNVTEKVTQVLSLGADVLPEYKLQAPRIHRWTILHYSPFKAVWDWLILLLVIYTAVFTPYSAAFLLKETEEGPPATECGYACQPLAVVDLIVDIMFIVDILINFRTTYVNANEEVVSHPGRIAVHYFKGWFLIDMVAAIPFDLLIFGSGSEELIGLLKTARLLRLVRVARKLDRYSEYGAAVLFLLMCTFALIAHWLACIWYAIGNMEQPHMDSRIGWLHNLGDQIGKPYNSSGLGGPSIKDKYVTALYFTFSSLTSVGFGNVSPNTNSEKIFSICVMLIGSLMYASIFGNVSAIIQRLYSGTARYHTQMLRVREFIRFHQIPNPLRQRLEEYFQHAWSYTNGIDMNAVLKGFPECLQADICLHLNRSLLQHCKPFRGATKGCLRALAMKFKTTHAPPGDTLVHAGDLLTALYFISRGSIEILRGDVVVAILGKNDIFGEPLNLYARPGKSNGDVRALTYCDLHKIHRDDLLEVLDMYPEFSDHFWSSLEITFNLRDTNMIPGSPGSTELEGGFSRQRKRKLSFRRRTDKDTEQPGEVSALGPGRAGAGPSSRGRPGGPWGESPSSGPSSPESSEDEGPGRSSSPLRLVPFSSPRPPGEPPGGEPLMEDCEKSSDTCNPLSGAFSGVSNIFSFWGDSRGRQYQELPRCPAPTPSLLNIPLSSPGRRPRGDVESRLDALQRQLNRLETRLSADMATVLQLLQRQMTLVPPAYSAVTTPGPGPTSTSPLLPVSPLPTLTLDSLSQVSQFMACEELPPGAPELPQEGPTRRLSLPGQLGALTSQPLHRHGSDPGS
Description: HEK293 cells stably-expressing hERG channels were grown (37° C., 5% CO2) in Dulbecco's Modified Eagle's Media supplemented with 10% Sigma fetal bovine serum, non-essential amino acids, 2 mM L-glutamine and 500 μg/ml G418, at incubator.
A 2 mM stock of BTC-AM dye (Molecular Probes, Eugene, Oreg.) was prepared in 100% DMSO and then added 1:1 to 10% (w/v) pluronic acid in DMSO on the day of assay. The dye was then diluted in hERG external EP buffer (140 mM NaCl, 4.0 mM KCl, 1.8 mM CaCl2, 1.0 mM MgCl2, 10 mM HEPES, pH 7.3 and 10 mM glucose; all buffer components obtained from Sigma Chemical). This BTC dye mixture (30 μl) was added to the cells and produced a final loading concentration of 2.5 μM. Cells are incubated at 21° C. for 45 minutes.
Test compounds were diluted to 10 mM DMSO in 60 μl. […] Assay-ready plates were generated by stamping 2.5 μl from the DMSO serially diluted plate, which was prepared on the Velocity 11 BioCel. Aqueous plates were created by adding 48 μl of EP buffer and then were diluted 30-45 minutes before the assay was read on the FLIPR. […] Assay-ready aqueous plates were prepared and diluted on a Cybio liquid handler.
Cells loaded with dye were read on the FLIPR384 (Molecular Devices, Sunnyvale, Calif.), which excites the dye using the 488 nm line of an argon laser. […]
The dynamic range of the assay was determined from blanks and totals wells. […]

hERG [8] = target: T2, hERG; assay: hERG patch clamp, HEK-293 cells; settings: pH 7.4
[9] = tested on: monocyte/macrophage infiltration into peritoneal cavity; assay: 48-hour thioglycollate (TG)-induced peritonitis model in hCCR2 KI mouse; type: in vivo, hCCR2 KI mice; settings: for % inhibition of monocyte/macrophage infiltration: FACS-based analysis of total monocyte/macrophages, 48 h; for EC50: Mus musculus, two separate studies, estimated, read-out: average EC50 for inhibition of monocyte/macrophage infiltration; for inhibition of monocyte/macrophage infiltration: flow cytometry (F4/80, Ly6C)
Description: The hCCR2 KI mice (C57BL/6-SVJ129) were injected intraperitoneally with 1 ml of thioglycollate (TG) (Hardy Diagnostics). For each study, eight male mice per group were used. […] The vehicle used was 0.01 N HCl in water. Forty-eight hours post TG injection, peritoneal lavages were performed by injecting 5 ml PBS/10 mM EDTA/10% BSA into the peritoneal cavity.
Cytospins were performed to determine differential leukocyte counts. The cells were stained for 3 minutes with Wright-Giemsa Stain (Sigma-Aldrich) and then rinsed with deionized water for 5 minutes. Differential counts were calculated based on a total of 200 cells counted per sample.

[10] = tested on: EAE, a model of multiple sclerosis; type: in vivo
[11] = target: Cyno CCR2 (Macaca fascicularis); assay: In vitro chemotaxis assay with L1.2 cells stably transfected with Cyno CCR2; type: cell-based, Cynomolgus monkey
Cyno CCR2 (Macaca fascicularis), sequence (Z9BGH1DMK8 1-374): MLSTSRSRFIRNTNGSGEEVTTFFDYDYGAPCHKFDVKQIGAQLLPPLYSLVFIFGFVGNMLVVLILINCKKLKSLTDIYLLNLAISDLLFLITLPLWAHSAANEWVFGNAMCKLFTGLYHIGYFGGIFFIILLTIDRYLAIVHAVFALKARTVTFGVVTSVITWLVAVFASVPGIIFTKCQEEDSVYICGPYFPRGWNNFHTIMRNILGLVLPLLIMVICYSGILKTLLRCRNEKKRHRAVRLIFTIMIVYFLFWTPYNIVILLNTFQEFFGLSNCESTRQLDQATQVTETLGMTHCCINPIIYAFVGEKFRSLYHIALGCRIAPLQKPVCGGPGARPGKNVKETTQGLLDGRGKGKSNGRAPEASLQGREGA
Excerpt: as §1

[12] = Single-dose pharmacokinetics in rats; settings: rat
Description: Male Sprague-Dawley rats (250-300 g) were used for the pharmacokinetic studies. Rats were fasted overnight prior to PO dosing and fed 4 h post dose. Blood samples (˜0.3 mL) were collected from the jugular vein into K2EDTA-containing tubes and then centrifuged at 4° C. (1500-2000×g) to obtain plasma. […] Serial blood samples were obtained at 0.17 (for IV only), 0.25, 0.5, 0.75, 1, 2, 4, 6, 8, and 24 h post dose. Plasma samples, obtained by centrifugation at 4° C. (1500-2000×g), were stored at −20° C. until analysis by LC/MS/MS.
as §5

CCR2 [13] = target: T1, CCR2; assay: Cold competition ligand binding to hCCR2 using 125I-human MCP-1; settings: 125I-human MCP-1, n=8
[14] = Moisture-sorption isotherm; type: physicochemical; settings: ca. 25% to ca. 75% RH at 25° C.
Description: A sample of the oily, gel-like (amorphous) free base of N-((1R,2S,5R)-5-(isopropyl(methyl)amino)-2-((S)-2-oxo-3-(6-(trifluoromethyl)quinazolin-4-ylamino)pyrrolidin-1-yl)cyclohexyl)acetamide (approx 0.5 g), extracted from a sample of the BSA salt, was suspended in heptane (approx 5 mL). The flask was scratched with a metal spatula, and the suspension was stirred vigorously by a magnetic stir bar at 25° C. A white slurry of crystalline particles was obtained after 24 hours of stirring. The slurry was filtered and the wet cake dried in vacuo (40° C.) to provide the pure N-2 form (confirmed by PXRD) of the free base. Form N-2 was characterized by an XRD pattern which matches the simulated pattern generated from the single crystal structure data. Form N-2 is the neat (no solvate molecules or no molecules of water or solvent) form of N-((1R,2S,5R)-5-(isopropyl(methyl)amino)-2-((S)-2-oxo-3-(6-(trifluoromethyl)quinazolin-4-ylamino)pyrrolidin-1-yl)cyclohexyl)acetamide, free base. Form N-2, was characterized by a DSC thermogram having a melt endotherm onset typically at ca. 158° C. to ca. 162° C. Form N-2 was characterized by a TGA thermal curve having a negligible weight loss at up to ca. 145° C. which agreed with the single crystal structure data. The weight loss corresponded to adventitious solvent.

Question: Which results are given for `CC(=O)N[C@@H]1C[C@H](N(C)C(C)C)CC[C@@H]1N1CC[C@H](Nc2ncnc3ccc(C(F)(F)F)cc23)C1=O` [Example 1, N-((1R,2S,5R)-5-(isopropyl(methyl)amino)-2-((S)-2-oxo-3-(6-(trifluoromethyl)quinazolin-4-ylamino)pyrrolidin-1-yl)cyclohexyl)acetamide]?
Answer: bioavailability ([1]; in vivo, po, 1.3 mg/kg): 47%; clearance ([1]; plasma, iv, 1 mg/kg): 1.38 L/h/kg; AUC ([1]; plasma, po, 1.3 mg/kg): 836 nM·h; IC50 (monkey PBMC's): 5.5 ± 10 nM; inhibition at 10000 nM ([2]; HEK-293 cells expressing human cardiac sodium channel SCN5A, 10,000 nM): 17%; inhibition at 30000 nM ([2]; HEK-293 cells expressing human cardiac sodium channel SCN5A, 30,000 nM): 19%; concentration at 18 h ([3]; 6.5 mg/kg once daily for 3 days, Study 1, 6.5 mg/kg oral once daily 3 days, 18 hours): 0.053 µM; concentration at 18 h ([3]; 13 mg/kg once daily for 3 days, Study 1, 13 mg/kg oral once daily 3 days, 18 hours): 0.101 µM; concentration at 18 h ([3]; 26 mg/kg once daily for 3 days, Study 1, 26 mg/kg oral once daily 3 days, 18 hours): 0.238 µM; concentration at 18 h ([3]; Study 2 (naive monkeys), 10 mg/kg oral once daily 3 days): 0.034 µM; concentration at 18 h ([3]; Study 2 (naive monkeys), 30 mg/kg oral once daily 3 days): 0.083 µM; Eos score ([4]; Study 1, 6.5 mg/kg): 1.3 ± 0.8; MNC score (inh %) ([4]; Study 1, 6.5 mg/kg): (19%); PMN score ([4]; Study 1, 6.5 mg/kg): 0.8 ± 0.3; Total cell score ([4]; Study 1, 6.5 mg/kg): 4.3 ± 1.6; MNC score ([4]; Study 1, 6.5 mg/kg, scale of 0 to 4): 2.2 ± 0.6; Eos score ([4]; Study 1, 13 mg/kg): 1.2 ± 0.6; MNC score (inh %) ([4]; Study 1, 13 mg/kg): (19%); PMN score ([4]; Study 1, 13 mg/kg): 0.7 ± 0.3; Total cell score ([4]; Study 1, 13 mg/kg): 4.0 ± 0.5; MNC score ([4]; Study 1, 13 mg/kg, scale of 0 to 4): 2.2 ± 0.3; Eos score ([4]; Study 1, 26 mg/kg): 0.5 ± 0^; MNC score (inh %) ([4]; Study 1, 26 mg/kg): (56%); PMN score ([4]; Study 1, 26 mg/kg): 0.2 ± 0.3; Total cell score ([4]; Study 1, 26 mg/kg): 1.8 ± 0.8; MNC score ([4]; Study 1, 26 mg/kg, scale of 0 to 4): 1.2 ± 0.6; Eos score ([4]; Study 2, 10 mg/kg): 0.3 ± 0.1; MNC score ([4]; Study 2, 10 mg/kg): 0.2 ± 0.2; MNC score (inh %) ([4]; Study 2, 10 mg/kg): (87%); PMN score ([4]; Study 2, 10 mg/kg): 0; Total cell score ([4]; Study 2, 10 mg/kg): 0.5 ± 0.2; Eos score ([4]; Study 2, 30 mg/kg): 0.6 ± 0.7; MNC score ([4]; Study 2, 30 mg/kg): 0.1 ± 0.3; MNC score (inh %) ([4]; Study 2, 30 mg/kg): (91%); PMN score ([4]; Study 2, 30 mg/kg): 0.1 ± 0.3; Total cell score ([4]; Study 2, 30 mg/kg): 0.8 ± 0.8; infiltration of other cells types such as eosinophils and neutrophils ([4]; first study): inhibited the infiltration; inhibition of MCP-1 induced infiltration of mononuclear cells to the skin ([4]; first study, 26 mg/kg oral once daily for three days, biopsy 18 hours after MCP-1): 56%; inhibition of MCP-1 induced infiltration of mononuclear cells to the skin ([4]; first study, 13 and 6.5 mg/kg): lower levels of inhibition; inhibition of mononuclear cell infiltration ([4]; 10 mg/kg): 87%; inhibition of mononuclear cell infiltration ([4]; 30 mg/kg): 91%; PAMPA permeability [5]: 443 ± 114 (8) nm/sec; Concentration of Mouse MCP-1 in plasma (CCR2 [6]; 1 mg/kg oral BID): 0.027 nM; Concentration of free Example 1 in plasma (CCR2 [6]; 1 mg/kg oral BID): 0.001 µM; % free CCR2 (CCR2 [6]; 1 mg/kg): 53.7%; % mouse MCP-1 bound CCR2 (CCR2 [6]; 1 mg/kg): 1.6%; % of Example 1-bound CCR2 (CCR2 [6]; 1 mg/kg): 44.7%; Concentration of Mouse MCP-1 in plasma (CCR2 [6]; 5 mg/kg oral BID): 0.043 nM; Concentration of free Example 1 in plasma (CCR2 [6]; 5 mg/kg oral BID): 0.004 µM; % free CCR2 (CCR2 [6]; 5 mg/kg): 22.8%; % mouse MCP-1 bound CCR2 (CCR2 [6]; 5 mg/kg): 1.1%; % of Example 1-bound CCR2 (CCR2 [6]; 5 mg/kg): 76.1%; Concentration of Mouse MCP-1 in plasma (CCR2 [6]; 25 mg/kg oral BID): 0.041 nM; Concentration of free Example 1 in plasma (CCR2 [6]; 25 mg/kg oral BID): 0.024 µM; % free CCR2 (CCR2 [6]; 25 mg/kg): 4.8%; % mouse MCP-1 bound CCR2 (CCR2 [6]; 25 mg/kg): 0.2%; % of Example 1-bound CCR2 (CCR2 [6]; 25 mg/kg): 95.0%; IC50 (hERG [7]): > 80000 nM; inhibition at 10000 nM (hERG [8]): 33%; inhibition at 30000 nM (hERG [8]): 61%; % inhibition of monocyte/macrophage infiltration ([9]; 1 mg/kg): 38%; % inhibition of monocyte/macrophage infiltration ([9]; 5 mg/kg): 71%; % inhibition of monocyte/macrophage infiltration ([9]; 25 mg/kg): 86%; number of total peritoneal leukocytes obtained by cell counter ([9]; 1, 5, or 25 mg/kg BID oral, 48 hours post TG): dose-dependent reduction; EC50 ([9]; differential leukocyte counts): 3 ± 0.9 nM; EC50 ([9]; flow cytometry): 2.2 ± 0.5 nM; inhibition of monocyte/macrophage influx ([9]; differential leukocyte counts, 1 mg/kg BID): 20%; inhibition of monocyte/macrophage influx ([9]; differential leukocyte counts, 5 mg/kg BID): 62%; inhibition of monocyte/macrophage influx ([9]; differential leukocyte counts, 25 mg/kg BID): 69%; inhibition of monocyte/macrophage infiltration ([9]; 1 mg/kg BID): 38%; inhibition of monocyte/macrophage infiltration ([9]; 5 mg/kg BID): 71%; inhibition of monocyte/macrophage infiltration ([9]; 25 mg/kg BID): 86%; clinical score ([10]; 55 mg/kg BID oral from day 1, two of the three studies, p<0.05): significantly reduced the clinical score; total inflammatory cellular infiltrate, histological evaluation of the spinal cord ([10]; Day 22, versus vehicle): did not demonstrate a significant difference; IC50 [11]: 11.4 ± 8 nM; AUC ([12]; male, Sprague-Dawley, plasma, po, 10 mg/kg): 3790 nM·h; Cl ([12]; IV, dose IV/PO mg/kg: 2k 2.5/25, 8a 6/72, 9c 4/43, Example 1 2/10): 2.58 L/h/kg; F % ([12]; dose IV/PO mg/kg: 2k 2.5/25, 8a 6/72, 9c 4/43, Example 1 2/10): 51%

Question: With “mouse MCP-1: mouse CCR2 ligand MCP-1 (chemokine)” as the molecule, how does the Kd (CCR2 [13]) read?
Answer: 0.91 nM

Question: For `CC(=O)N[C@@H]1C[C@H](N(C)C(C)C)CC[C@@H]1N1CC[C@H](Nc2ncnc3ccc(C(F)(F)F)cc23)C1=O` [Form N-2, N-((1R,2S,5R)-5-(isopropyl(methyl)amino)-2-((S)-2-oxo-3-(6-(trifluoromethyl)quinazolin-4-ylamino)pyrrolidin-1-yl)cyclohexyl)acetamide], which “moisture-sorption isotherm weight gain” value [14] is on record?
Answer: 0.15%
